In US6767738B1, “Method of isolating adult mammalian CNS-derived progenitor stem cells using density gradient centrifugation” (The Salk Institute for Biological Studies, priority 1999, dated 2004):

Experiments:
clonal stem cells (AP14) = experiment: RT-PCR analysis of p21, NeuroD, trk and p75NGFR mRNA in stem cell cultures; assay type: cell-based, rat
Procedure: (§1) Cell Culture. For proliferating conditions, clonal stem cells (AP14) were cultured in Dulbecco's Modified Eagles Medium/Ham's F12 (DMEM/F12, 1:1) containing N2 supplement (Gibco BRL, Gaithersburg, Md.) and 20 ng/ml rhFGF-2 (provided by A. Baird, Prizm Pharmaceuticals Inc., La Jolla, Calif.). Culture dishes (Becton Dickinsin Labware, Lincoln Park, N.J.) were coated with polyomithine and mouse laminin as previously described by Ray, et al., Proliferation, differentiation and long-term culture of primary hippocampal neurons, Proc Natl Acad Sci USA 90:3602-3606 (1993). For differentiation experiments, cells were plated into polyornithine/laminin coated glass chamber slides (Nunc, Naperville, Ill.) at a density of 2.5—103 per cm2. The cells were incubated for 24 hrs in normal N2 medium containing 20 ng/ml FGF-2, and then the medium was replaced by N2 medium containing 0.5% […] (FBS) and 0.01% DMSO (control solvent) or […] all-trans retinoic acid (Sigma, St. Louis, Mo.). For further differentiation, the medium was replaced by N2 medium containing 0.5% FBS and one of the following: sterile water (control solvent), mouse 2.55 NGF (50 ng/ml, Boehringer Mannheim, Indianapolis, Ind.), rhBDNF (20 ng/ml, Alomone Labs, Jerusalem, Israel), rhNT-3 (40 ng/ml, Genentech, South San Francisco, Calif.). The medium was replaced every two days. For inhibition of the tyrosine kinase activity of the Trk receptors, K-252a (100 nM, Calbiochem, San Diego, Calif.) was added to the medium.
Reverse Transcription-PCR Analysis. Total RNA from stem cells was isolated using RNeasy Total RNA Kits (Qiagen, Chatsworth, Calif.) according to manufacturer's instructions. Fifty nanograms of total RNA was reverse transcribed using avian myeloblastosis virus reverse transcriptase (Promega, Madison, Wis.) with random hexamers ([…]) as primers in a […] reaction mixture. For PCR amplification, two sets of specific oligonucleotide pairs ([…]) were used: one directed to the transcript of interest, and one for a constitutively expressed transcript, either ribosomal protein L27 or L27a. Reactions were performed in a […] reaction mixture containing 10 mM Tris-Cl (pH 8.4), 50 mm KCl, 1.5 mM MgC12, […] each of the four dNTPs, 2 mCi of [a-32P]dCTP and 5 units of Taq polymerase (Promega) using a thermal cycler (Perkin-Elmer, Foster City, Calif.) with a regimen of 1 min at 94° C., 2 min at 60° C. (55° C. for trk receptors) and 2 min at 72° C. for 23 cycles Fifty microliters of each reaction was analyzed by electrophoresis on 8% polyacrylamide gels followed by autoradiography. […] Under these conditions, the L27 amplification product was directly proportional to the amount of input RNA, up to 50 ng total RNA. Oligonucleotide primers used are as follows: […]

c-Fos = c-Fos immunofluorescence double labeling after neurotrophin stimulation; assay type: cell-based, rat; settings: RA for 6 days prior to stimulation by neurotrophins
Procedure: as §1, with “For further differentiation, the medium was replaced by N2 medium containing 0.5% FBS and one of the following: sterile water (control solvent), mouse 2.55 NGF (50 ng/ml, Boehringer Mannheim, Indianapolis, Ind.), rhBDNF (20 ng/ml, Alomone Labs, Jerusalem, Israel), rhNT-3 (40 ng/ml, Genentech, South San Francisco, Calif.). The medium was replaced every two days. For inhibition of the tyrosine kinase activity of the Trk receptors, K-252a (100 nM, Calbiochem, San Diego, Calif.) was added to the medium.” left out
Immunofluorescence. […] Both the average percentage and the absolute number +/− SEM of immunofluorescent cells were determined by counting 10 or 50 high power fields (20×) visualized under fluorescence. The total number of cells was counted using nuclear counterstaining with 4′,6diamidino-2-phenylindole (DAPI, Sigma). […]

CC1=C(/C=C/C(C)=C/C=C/C(C)=C/C(=O)O)C(C)(C)CCC1 [RA, all-trans retinoic acid]
p21 mRNA (clonal stem cells (AP14); RA treatment, peaked after roughly 5 days): significant yet gradual increase | trkA mRNA (clonal stem cells (AP14); following RA treatment): increased gradually and reached a plateau after 5 days | trkB mRNA (clonal stem cells (AP14); following RA treatment): increased gradually and reached a plateau after 5 days | trkC mRNA (clonal stem cells (AP14); following RA treatment): increased gradually and reached a plateau after 5 days | p75NGFR mRNA (clonal stem cells (AP14); following RA treatment, 7-day time course): dramatically increased | expression of NeuroD mRNA (clonal stem cells (AP14); within 24 hrs of FGF-2 withdrawal and RA treatment, 6 days): increased and remained elevated | number of c-Fos-positive cells (c-Fos): significantly enhanced
